US20060167086A1, “Medicinal composition” (priority 2003, published 2006)

How the values were obtained:
[1] = system: human normal leukocytes; assay: Apoptosis of human normal leukocytes; assay type: cell-based; settings: same concentration as that used in inducing apoptosis of leukemia cells
[2] = system: myelocytic leukemia cells in which NF-κB is not activated; assay: Proliferation of myelocytic leukemia cells; assay type: cell-based
[3] = system: normal cells; assay: Apoptosis of normal cells; assay type: cell-based
[4] = system: prostatic cancer; settings: Cancer Res. 2003; 63(1):107-10; cited from earlier work
[5] = Bioorg. Med. Chem. Lett. 10, 865-869, 2000; cited from earlier work
[6] = system: leukemia cells in which NF-κB is activated; assay: Apoptosis of leukemia cells; assay type: cell-based
[7] = Model mice with induced cachexic symptoms; assay type: in vivo; settings: administered to model mice with induced cachexic symptoms
[8] = system: human breast cancer cells; assay: Proliferation of human breast cancer cells in vitro and in vivo; assay type: cell-based; settings: in a manner not depending on apoptosis
[9] = Combination with oncotherapy that activates NF-κB; settings: used in combination
[10] = background statement; cited from earlier work
[11] = system: adult T cell leukemia/lymphoma (ATL) cells; assay: Proliferation of ATL cells; assay type: cell-based
[12] = system: adult T cell leukemia/lymphoma (ATL) cells; assay: Apoptosis of ATL cells; assay type: cell-based
[13] = system: normal cells; assay: Proliferation of normal cells; assay type: cell-based
[14] = system: NF-κB; assay: NF-κB activation in ATL cells; assay type: cell-based
[15] = Type II collagen-induced rheumatoid arthritis model mice; assay type: in vivo; settings: administration to model mice of type II collagen-induced rheumatoid arthritis
[16] = system: breast cancer; settings: Annual Meeting of the Japanese Cancer Association, 2002; cited from earlier work
[17] = system: NF-κB; settings: J. Biol. Chem. 277, 24625-24630, 2002; cited from earlier work
[18] = system: Hodgkin's-lymphoma cells in which NF-κB is activated; assay: Proliferation of Hodgkin's-lymphoma cells; assay type: cell-based
[19] = system: Undifferentiated human thyroid cancer cell FRO; assay: Antitumor effect in thyroid cancer model mice; assay type: in vivo, BALB/cnu/nu male mice; settings: 10 mg/kg BW intraperitoneally every day for 10 days; FIG. 6
Method: The antitumor effect of (−)-DHM2EQ on human thyroid cancer was investigated. Undifferentiated human thyroid cancer cell suspension FRO (5×10^6 cells; 1200 μl of RPMI-1640) was injected subcutaneously into the flank of 8-week-old BALB/cnu/nu male mice (Charles River, Japan). Subsequently, tumor sizes were measured with calipers every other day, and tumor volume was calculated by formula (a; minor axis of tumor)^2×(b: perpendicular diameter to a)×0.4).

[20] = system: C2C12 myoblast cell line; assay: Relief of TNF-α inhibition of differentiation from myoblasts to muscle cells; assay type: cell-based, mouse; settings: 6 days
Method: Thus, the inventors investigated whether addition of (−)-DHM2EQ can relieve the inhibitory responses to muscle differentiation by TNF-α, using a differentiation induction system of the C2C12 myoblast cell line. Using DMEM (culture medium) containing 10% FBS a mouse skeletal myogenic cell line, C2C12 (purchased from the RIKEN cell bank) was prepared at 7.5×10^4 cells/ml. Cells were seeded in plastic 12-well plates on coverslips (1 ml/well; Matsunami Glass Ind., Ltd., Osaka, Japan). Subsequently, when cells had grown to confluence, the medium was changed to DMEM (differentiation medium) containing 0.5% heat-inactivated horse serum. Cells to be subjected to the effect of TNF-α (1 ng/ml) and/or (−)-DHMEQ (3 μg/(ml)) were supplemented with each agent at this point. After 6 days, on confirmation of the formation of multinucleated myotubes, a marker of muscle cell differentiation, the medium was removed. The control was prepared by culturing cells in a culture medium at a density such that confluency was reached exactly on day 6.
These cells were washed twice with PBS^− (Ca^2+, Mg^2+-free PBS; 8.0 g/l NaCl, 0.2 g/l KCl, 2.3 g/l NaHPO4.12H2O, 0.2 g/l KH2PO4). […]
Samples thus prepared were mounted on a slide and photographed at 400× magnification with a fluorescence microscope (Nikon UFX-DX; set with a 40× phase contrast objective, Ph2). […]

[21] = Body weight under high fat diet in obese type 2 diabetes model; assay type: in vivo; settings: supplemented to high fat diet, 4 weeks, KKA^y female mice; FIG. 8
Method: Four-week-old KKA^y female mice were divided into two groups: the (−)-DHM2EQ group (n=5) and the control group (n 4). A high fat diet (CRF-1; Oriental Yeast Co.) as a basal chow diet was fed ad libitum for 4 weeks to the non-supplemented group (∘: without (−)-DHM2EQ) and the (−)-DHM2EQ-administered group (●: with (−)-DHM2EQ). Body weights of animals were measured weekly. The (−)-DHM2EQ given to mice was ground to fine powder in a mortar, suspended or dissolved in a 5% CMC solution, and supplemented to the high fat diet.

[22] = system: NF-κB; assay: Inhibition of NF-κB activity; assay type: cell-based
[23] = system: hypertrophic fat cells (from precursor fat cell line 3T3-L1); assay: Apoptosis induction (TUNEL) in hypertrophic fat cells; assay type: cell-based
Method: It is considered that diseases involving insulin resistance result from TNF-α secreted from hypertrophic fat cells, as mentioned above. Thus, to examine whether (−)-DHM2EQ can induce apoptosis of hypertrophic fat cells, the influence of (−)-DHM2EQ on the hypertrophic fat cells obtained by inducing differentiation of precursor fat cells in long-term culture was investigated. The precursor fat cell line 3T3-L1 (7.5×10^4 cells; 1 ml of DMEM+10% FBS) was plated on coverslips in 12-well plates. A few days after the cells reached confluency, the cell medium was changed to a medium containing 500 μM of 3-isobutyl-1-methylxanthine (IBMX), 1 μM of dexamethasone (Dex), and a medium containing 1 μg/ml of insulin. After culture for 3 days, this medium was changed to a media containing 1 μg/ml insulin, which was cultured for another 3 days, followed by replacement with a normal medium (DMEM containing 10% FBS). Thereafter, medium change was performed every three days continuously till day 50.
On day 50 after differentiation induction, medium change was performed. […] After another 24 h, the medium was removed and hypertrophy fat cells were washed 3 times with 500 μl of PBS (8 g/l NaCl, 0.45 g/l NaH2PO4.2H2O, 1.28 g/l Na2HPO4) for fluorescent antibodies and fixed for 15 min at 4° C. in 500 μl of 4% paraformaldehyde. Subsequently, cells were washed three times with 500 μl of PBS for fluorescent antibodies and treated for 15 min with 0.2% BSA and 0.5% Tween-20 in PBS for fluorescent antibodies.
Subsequently, the coverslips were washed three times with 500 μl of distilled water and then mounted on the paraffin sheet in 150-mm^2 shielded Petri dishes, cells facing upward. TUNEL solution (TdT buffer II/FITC-dUTP/TdT=45 μl/2.5 μl/2.5 μl) was dropped in 45-μl drops onto the coverslips, followed by incubation for 1 h at 37° C. Finally, the coverslips were returned to shielded 12-well plates and washed three times with 1 ml of PBS for fluorescent antibodies. Then the coverslips were removed, mounted on a slide in 50% glycerol, and observed under a fluorescence microscope.

[24] = system: multiple myeloma cells line KMS-12-PE; assay: Antitumor effect in myeloma model mice; assay type: in vivo, CB17/lcr-SCID mice; settings: 8 mg/kg BW intraperitoneally every day for 14 days; FIG. 5
Method: Next, the antitumor effect of (−)-DHM2EQ on multiple myeloma was investigated. The multiple myeloma cells line KMS-12-PE (Ohtsuki T. et al., Br. J. Hematol. 73, 199-204, 1989) (4×10^7 cells) was dissolved in 0.2 ml of PBS and injected subcutaneously into the left back of CB17/lcr-SCID mice to form tumors. Pieces of these tumors (5 mm^3) were implanted in 10 mice. […] Subsequently, a solution of (−)-DHM2EQ (RPMI1640 medium) was administered intraperitoneally to 5 mice at 8 mg/kg BW every day for 14 days ((−)-DHM2EQ). Another five mice in the control group were given an equal amount of solvent (Control). The diameters of tumors were measured twice a week (Tumor volume=(minor axis)^2×(major axis)×0.52).

## O=C(NC1=CC(=O)C2OC2C1O)c1ccccc1O (racemic) [(±)-DHM2EQ, 5,6-epoxy-4-hydroxy-3-salicyloylamino-2-cyclohexenone]
[1]
  apoptosis of human normal leukocytes: does not in the least induce apoptosis
[2]
  proliferation of myelocytic leukemia cells: does not inhibit proliferation
[3]
  apoptosis of normal cells: does not induce apoptosis
[4]
  growth of prostatic cancer on an organism level: strongly suppresses the growth
[5]
  symptoms in a model mouse of rheumatism: suppresses symptoms
[6]
  apoptosis of leukemia cells: induces apoptosis
[7]
  cachexic symptoms: efficacy of (±)-DHM2EQ in prevention/improvement of cachexic symptoms
[8]
  proliferation of human breast cancer cells: suppresses proliferation
[9]
  effect of oncotherapy that activates NF-κB (chemotherapy, radiotherapy): enhances the effect
[10]
  toxicity: low toxicity
[11]
  proliferation of ATL cells: specifically capable of inhibiting proliferation
[12]
  apoptosis of ATL cells: capable of inducing apoptosis
[13]
  proliferation of normal cells: does not inhibit proliferation
[14]
  NF-κB activation in ATL cells: inhibits NF-κB activation
[15]
  arthritic symptoms: efficacy of (±)-DHM2EQ in suppression of arthritic symptoms
[16]
  growth of breast cancer on an organism level: strongly suppresses the growth
[17]
  NF-κB inhibition on a cellular level: inhibits NF-κB strongly
[18]
  proliferation of Hodgkin's-lymphoma cells: inhibits proliferation

## O=C(NC1=CC(=O)[C@H]2O[C@H]2[C@H]1O)c1ccccc1O [(−)-DHM2EQ]
[19]
  tumor growth (tumor volume) compared with the control: significantly inhibits tumor growth
[20]; 1 to 3 μg/ml (−)-DHM2EQ with 1 ng/ml TNF-α, FIG. 9
  inhibition by TNF-α of differentiation induction from myoblasts to muscle cells: relieves the inhibition of the differentiation induction
[21]
  body weight under high fat diet load: suppression of body weight
[22]
  inhibitory effect on the NF-kappa B activity relative to (±)-DHM2EQ: several to ten or more times stronger
[23]; 10 μg/ml (−)-DHM2EQ alone, without TNF-α
  apoptosis of hypertrophic fat cells: did not induce apoptosis
[23]; pretreated with 10 mg/ml (−)-DHM2EQ, then stimulation with 10 ng/ml TNF-α, TUNEL, FIG. 7
  apoptosis of hypertrophic fat cells: induces apoptosis
[24]
  tumor growth (tumor volume) compared with the control: significantly suppresses tumor growth

## TNF-α [reference compound]
[20]; 1 ng/ml TNF-α
  differentiation induction from myoblasts to muscle cells: suppressed differentiation induction
[23]; 10 ng/ml TNF-α alone
  apoptosis of hypertrophic fat cells: did not induce apoptosis
